Experimental data from patent US4820695A, “C-20-dihydro-deoxy-(cyclic amino)-derivatives of macrolide antibiotics” (priority 1987, dated 1989).
Values after ≈ are worked out from the molar mass of the structure shown. Read-outs that look alike come from different tables or passages of the source.

Tests used:
[1] = test system: Pasteurella multocida; test: Pasteurella infection in one-day-old chicks, subcutaneous administration (Table XII); type: in vivo; conditions: Administered subcutaneously, 30 mg/kg × 2, 1 and 4 hours post-challenge
Description: Many of the C-20 modified derivatives of this invention have also shown in vivo antibacterial activity against infections induced by gram-negative bacteria. Tables XII and XIII summarize the results of tests in which illustrative compounds were evaluated against a Pasteurella infection in one-day-old chicks. The compounds were administered parenterally or orally after challenge of the chicks with Pasteurella multocida (0.1 ml of a 10^-4 dilution of a twenty-hour tryptose broth culture of an avian P. multocida given subcutaneously). In these tests, unless indicated otherwise, all non-medicated infected chicks died within 24 hours of Pasteurella challenge. In the tests summarized in Table XII, the compounds were administered by subcutaneous injection at a dosage of 30 mg/kg, 1 and 4 hours post-challenge of the chicks with P. multocida. In the tests summarized in Table XIII the compounds were administered in medicated drinking water (at a level of 2 g/gal) available from 4 to 20 hours prior to challenge of the chicks with P. multocida and during the 3 -day test period.
^a Administered subcutaneously; 30 mg/kg × 2

[2] = test system: Streptococcus Group D X66; test: MIC, standard agar-dilution assay (Table IX); type: cell-based
[3] = test system: Streptococcus pyogenes C203; test: MIC, standard agar-dilution assay (Table IX); type: cell-based
[4] = test system: Escherichia coli N10; test: MIC, standard agar-dilution assay (Table IX); type: cell-based
[5] = test system: Staphylococcus epidermidis EPI1; test: MIC, standard agar-dilution assay (Table IX); type: cell-based; conditions: Staphylococcus epidermidis EPI1, agar-dilution
[6] = test system: Streptococcus pneumoniae Park I; test: MIC, standard agar-dilution assay (Table IX); type: cell-based; conditions: Streptococcus pneumoniae Park I, agar-dilution
[7] = test system: Haemophilus influenzae C.L.; test: MIC, standard agar-dilution assay (Table IX); type: cell-based; conditions: Ampicillin-sensitive strain
[8] = test system: Escherichia coli TEM; test: MIC, standard agar-dilution assay (Table IX); type: cell-based
[9] = test system: Staphylococcus aureus X400; test: MIC, standard agar-dilution assay (Table IX); type: cell-based; conditions: Staphylococcus aureus X400, Methicillin-resistant strain
[10] = test system: Staphyloccus aureus X1.1; test: MIC, standard agar-dilution assay (Table IX); type: cell-based, Staphylococcus aureus
[11] = test system: Streptococcus Group D 2041; test: MIC, standard agar-dilution assay (Table IX); type: cell-based
[12] = test system: Staphylococcus epidermidis 222; test: MIC, standard agar-dilution assay (Table IX); type: cell-based
[13] = test system: Haemophilus influenzae 76; test: MIC, standard agar-dilution assay (Table IX); type: cell-based; conditions: Haemophilus influenzae 76, Ampicillin-resistant strain
[14] = Titratable groups in 66% aqueous DMF (Tables XIV-XVI); type: physicochemical
Excerpt: ^c Run in 66% aqueous DMF
^d Run in 66% aqueous DMF

[15] = test system: Escherichia coli EC14; test: MIC, standard agar-dilution assay (Table IX); type: cell-based
[16] = test system: Klebsiella X26; test: MIC, standard agar-dilution assay (Table IX); type: cell-based
[17] = test system: Staphylococcus aureus S13E; test: MIC, standard agar-dilution assay (Table IX); type: cell-based
[18] = test system: Mycoplasma gallisepticum 29C; test: MIC, broth-dilution microtiter test (Table X); type: cell-based
Excerpt: (§1) The MIC's in Table X were obtained using conventional broth-dilution microtiter tests.

[19] = test system: Pasteurella multocida 60A; test: MIC, broth-dilution microtiter test (Table X); type: cell-based; conditions: Avian isolate
Excerpt: as §1

[20] = test system: Pasteurella multocida 17E; test: MIC, broth-dilution microtiter test (Table X); type: cell-based; conditions: Bovine isolate
Excerpt: as §1

[21] = test system: Streptococcus sp. 19F; test: MIC, broth-dilution microtiter test (Table X); type: cell-based
Excerpt: as §1

[22] = test system: Pasteurella hemolytica 22C; test: MIC, broth-dilution microtiter test (Table X); type: cell-based
Excerpt: as §1

[23] = test system: Mycoplasma hyorhinis 29E; test: MIC, broth-dilution microtiter test (Table X); type: cell-based
Excerpt: as §1

[24] = test system: Mycoplasma hyopneumoniae S5972; test: MIC, broth-dilution microtiter test (Table X); type: cell-based
Excerpt: as §1

[25] = test system: Mycoplasma synoviae 40A; test: MIC, broth-dilution microtiter test (Table X); type: cell-based
Excerpt: as §1

[26] = test system: Staphylococcus aureus; test: MIC, broth-dilution microtiter test (Table X); type: cell-based
Excerpt: as §1

[27] = test system: Staphylococcus aureus V41; test: MIC, standard agar-dilution assay (Table IX); type: cell-based; conditions: Staphylococcus aureus V41, Penicillin-resistant strain
[28] = test system: Streptococcus pyogenes C203; test: ED50 in mice experimentally infected with S. pyogenes C203 (Table XI); type: in vivo; conditions: Streptococcus pyogenes, doses given 1 and 4 hours postinfection, read-out: ED50
Description: The C-20 modified derivatives of this invention have shown in vivo antimicrobial activity against experimentally-induced infections in laboratory animals. When two doses of test compound were administered to mice experimentally infected with S. pyogenes C203, the activity observed was measured as an ED50 value [effective dose in mg/kg to protect 50% of the test animals: see Warren Wick, et al., J. Bacteriol. 81, 233-235 (1961)].
^a mg/kg × 2; doses given 1 and 4 hours postinfection

[29] = Staphylococcus aureus, read-out: MIC
[30] = Mycoplasmoides gallisepticum, read-out: MIC
[31] = Mesomycoplasma hyopneumoniae, read-out: MIC
[32] = Mycoplasmopsis synoviae, read-out: MIC

SMILES: CCC1OC(=O)CC(O)C(C)C(OC2OC(C)C(O)C(N(C)C)C2O)C(CCN2CCC(C)CC(C)(C)C2)CC(C)C(=O)C=CC(C)=CC1COC1OC(C)C(O)C(OC)C1OC (single isomer, unassigned) [Compound D24, 20-DH-DO-20-(3,3,5-Trimethylhexahydroazepin-1-yl)desmycosin]
- Number of Deaths/Number Treated [1]: 2/10
- MIC [2]: 4 µg/mL (≈ 4.46 µM)
- MIC [3]: 0.25 µg/mL (≈ 0.279 µM)
- MIC [4]: 64 µg/mL (≈ 71.3 µM)
- MIC [5]: 0.5 µg/mL (≈ 0.557 µM)
- MIC [6]: 1 µg/mL (≈ 1.11 µM)
- MIC [7]: 32 µg/mL (≈ 35.7 µM)
- MIC [8]: 32 µg/mL (≈ 35.7 µM)
- MIC [9]: 1 µg/mL (≈ 1.11 µM)
- MIC [10]: 0.5 µg/mL (≈ 0.557 µM)
- MIC [11]: 8 µg/mL (≈ 8.92 µM)
- MIC [12]: 0.25 µg/mL (≈ 0.279 µM)
- MIC [13]: 8 µg/mL (≈ 8.92 µM)
- Titratable groups [14]: 9.4
- Titratable groups (first value) [14]: 7.9
- MIC [15]: 64 µg/mL (≈ 71.3 µM)
- MIC [16]: 128 µg/mL (≈ 143 µM)
- MIC ([17]; Staphylococcus aureus S13E, agar-dilution): 0.5 µg/mL (≈ 0.557 µM)
- MIC [18]: 0.39 µg/mL (≈ 0.435 µM)
- MIC [19]: 6.25 µg/mL (≈ 6.97 µM)
- MIC [20]: 12.5 µg/mL (≈ 13.9 µM)
- MIC [21]: 3.12 µg/mL (≈ 3.48 µM)
- MIC [22]: 6.25 µg/mL (≈ 6.97 µM)
- MIC [23]: 25 µg/mL (≈ 27.9 µM)
- MIC [24]: 0.78 µg/mL (≈ 0.869 µM)
- MIC [25]: 0.097 µg/mL (≈ 0.108 µM)
- MIC [26]: 3.12 µg/mL (≈ 3.48 µM)
- MIC [27]: 0.5 µg/mL (≈ 0.557 µM)

SMILES: CCC1OC(=O)CC(O)C(C)C(OC2OC(C)C(O)C(N(C)C)C2O)C(CCN2CCCCCCCCCCCC2)CC(C)C(=O)C=CC(C)=CC1COC1OC(C)C(O)C(OC)C1OC (centres unmarked) [Compound D10, 20-DH-DO-20-(azacyclotridecan-1-yl)desmycosin]
- Number of Deaths/Number Treated [1]: 10/10
- MIC ([2]; read-out: MIC): 4 µg/mL (≈ 4.26 µM)
- MIC ([4]; read-out: MIC): 32 µg/mL (≈ 34.1 µM)
- MIC ([5]; read-out: MIC): 0.25 µg/mL (≈ 0.266 µM)
- MIC ([6]; read-out: MIC): 0.25 µg/mL (≈ 0.266 µM)
- MIC ([7]; read-out: MIC): 4 µg/mL (≈ 4.26 µM)
- MIC ([8]; read-out: MIC): 8 µg/mL (≈ 8.52 µM)
- MIC ([9]; read-out: MIC): 0.25 µg/mL (≈ 0.266 µM)
- MIC [10, 29]: 0.25 µg/mL (≈ 0.266 µM)
- MIC ([11]; GROUPD2041, read-out: MIC): 4 µg/mL (≈ 4.26 µM)
- MIC ([12]; read-out: MIC): 0.12 µg/mL (≈ 0.128 µM)
- MIC ([13]; read-out: MIC): 8 µg/mL (≈ 8.52 µM)
- pKa ([14]; Titratable groups): 9.5
- pKa ([14]; Titratable groups (first value)): 8
- MIC ([15]; read-out: MIC): 64 µg/mL (≈ 68.1 µM)
- MIC ([16]; read-out: MIC): 16 µg/mL (≈ 17 µM)
- MIC ([17]; Staphylococcus aureus, S13E): 0.25 µg/mL (≈ 0.266 µM)
- MIC [18, 30]: 0.097 µg/mL (≈ 0.103 µM)
- MIC ([19]; read-out: MIC): 3.12 µg/mL (≈ 3.32 µM)
- MIC ([20]; read-out: MIC): 1.56 µg/mL (≈ 1.66 µM)
- MIC ([21]; read-out: MIC): 0.78 µg/mL (≈ 0.83 µM)
- MIC ([22]; read-out: MIC): 1.56 µg/mL (≈ 1.66 µM)
- MIC ([23]; read-out: MIC): 12.5 µg/mL (≈ 13.3 µM)
- MIC [24, 31]: 0.78 µg/mL (≈ 0.83 µM)
- MIC [25, 32]: ≤ 0.048 µg/mL
- MIC ([26]; read-out: MIC): 0.39 µg/mL (≈ 0.415 µM)
- MIC ([27]; read-out: MIC): 0.25 µg/mL (≈ 0.266 µM)
- ED50 ([28]; C203, Oral): 68 mg/kg
- ED50 ([28]; C203, sc, Subcutaneous): < 10 mg/kg

SMILES: CCC1OC(=O)CC(O)C(C)C(OC2OC(C)C(OC3CC(C)(O)C(O)C(C)O3)C(N(C)C)C2O)C(CCN2CCCCCC2)CC(C)C(=O)C=CC(C)=CC1COC1OC(C)C(O)C(O)C1OC (centres unmarked) [Compound M3, 20-DH-DO-20-(hexahydroazepin-1-yl)macrocin]
- MIC ([2]; read-out: MIC): > 128 µg/mL
- MIC ([3]; read-out: MIC): 4 µg/mL (≈ 4.06 µM)
- MIC ([4]; read-out: MIC): > 128 µg/mL
- MIC ([5]; read-out: MIC): 8 µg/mL (≈ 8.12 µM)
- MIC ([6]; read-out: MIC): 2 µg/mL (≈ 2.03 µM)
- MIC ([7]; read-out: MIC): 128 µg/mL (≈ 130 µM)
- MIC ([8]; read-out: MIC): > 128 µg/mL
- MIC ([9]; read-out: MIC): 32 µg/mL (≈ 32.5 µM)
- MIC [10, 29]: 4 µg/mL (≈ 4.06 µM)
- MIC ([11]; GROUPD2041, read-out: MIC): > 128 µg/mL
- MIC ([12]; read-out: MIC): 2 µg/mL (≈ 2.03 µM)
- MIC ([13]; read-out: MIC): 128 µg/mL (≈ 130 µM)
- pKa ([14]; 66% aqueous DMF, read-out: Titratable groups): 9.4
- pKa ([14]; 66% aqueous DMF, read-out: Titratable groups (first value)): 6.91
- MIC ([15]; read-out: MIC): > 128 µg/mL
- MIC ([16]; read-out: MIC): > 128 µg/mL
- MIC ([17]; Staphylococcus aureus, S13E): 8 µg/mL (≈ 8.12 µM)
- MIC [18, 30]: 6.25 µg/mL (≈ 6.34 µM)
- MIC ([19]; read-out: MIC): > 50 µg/mL
- MIC ([20]; read-out: MIC): > 50 µg/mL
- MIC ([21]; read-out: MIC): 50 µg/mL (≈ 50.7 µM)
- MIC ([22]; read-out: MIC): 50 µg/mL (≈ 50.7 µM)
- MIC ([23]; read-out: MIC): > 50 µg/mL
- MIC [24, 31]: 12.5 µg/mL (≈ 12.7 µM)
- MIC [25, 32]: 25 µg/mL (≈ 25.4 µM)
- MIC ([26]; read-out: MIC): 12.5 µg/mL (≈ 12.7 µM)
- MIC ([27]; read-out: MIC): 8 µg/mL (≈ 8.12 µM)
- ED50 ([28]; C203, Oral): > 100 mg/kg
- ED50 ([28]; C203, sc, Subcutaneous): > 10 mg/kg
